This note sets out measurements from US20240124439A1, “Pyrido[2,3-D]Imidazole Derivatives and Their Use As Inhibitors of ITK for the Treatment of Skin Disease” (Pfizer Inc., priority 2020, published 2024).

The target of test [1] is IL-2-Inducible T-Cell Kinase (ITK) (Homo sapiens (Human), UniProt Q08881). As to the kind of experiment: ITK enzyme assay (IL-2-inducible T-cell kinase activity). The test is classed as biochemical. The settings on record: geometric mean of count n. As for the experimental part: ITK activity was determined by measuring the effect of a test compound in an ITK enzyme assay.
1.0 M HEPES Buffer pH 7.5 solution was prepared as follows: 238.3 g HEPES free acid (Sigma) and 800 mL of water were combined, and the mixture was stirred until complete dissolution. The pH was adjusted to 7.5 via titration with 5N NaOH and the volume adjusted to 1000 mL. The solution was filtered and sterilized.
ITK assay buffer was prepared as follows: 50 mL of HPLC-grade water was treated with 2 mL of 1.0 M HEPES Buffer, 500 μL of 2% Gelatin (Sigma), 1.0 mL of aqueous MgCl2 solution (1.0 M), and 1.0 mL of aqueous glutathione solution (0.5 M), and the solution was mixed. The solution was brought to 99 mL in a graduated cylinder by addition of water and sterilized through a 0.2 μm filter. 0.1 mL of Brij-35™ Surfact-Amps™ Detergent Solution (10% w/v aqueous solution, ThermoFisher) and 1.0 mL of ATP (Teknova,100 mM) were added and the solution was mixed.
Preparation of 1.33× ITK enzyme solution was as follows: 49.99 mL of ITK assay buffer was treated with 4.1 μL of ITK enzyme (ITK FL (N-Flag and C-His tagged, […]) Lake Pharma, 0.25 mg/ml in a buffer containing 25 mM Tris pH 7.8, 150 mM NaCl, 10% glycerol and 2 mM TCEP) and the mixture was gently agitated. The resulting solution was stored on ice. 30 Minutes prior to use, the enzyme solution was removed from ice and equilibrated to RT by incubation in a RT water bath.
Preparation of 4× ITK substrate solution was as follows: 50 mL of ITK assay buffer was treated with 100 μL of BTK peptide (China Peptide Company, 2 mM stock solution in DMSO). The tube was capped, mixed by gently inverting the tube, and then stored on ice. 30 Minutes prior to use, the substrate solution was removed from ice and equilibrated to RT by incubation in a RT water bath.
At the time of assay, 7.5 μL of the 1.33× ITK enzyme solution was added to plate wells containing 0.1 μL of varying concentrations of test compound in DMSO. The plate was incubated 30 min at RT. The plate wells were each treated with 2.5 uL of the 4× ITK substrate solution and the plate was sealed (TopSeal™, Perkin Elmer). The plate was spun at 1000 rpm for 30 sec and then incubated for 60 min at RT. The seal was removed, and each well was treated with 10 μL of Stop/Detect Buffer (20 mM HEPES pH 7.5, 0.01% gelatin, 1 nM LANCE PT66 (Perkin Elmer), 16.5 μg/ml Surelight APC (Perkin Elmer), 10 mM EDTA, 250 mM NaCl). The plate was again covered and was spun at 1000 rpm for […]. The plate was allowed to incubate overnight at RT and in a closed carrier to reduce dehydration. The seal was removed, and the fluorescence was read with a plate reader with an excitation wavelength of […]. The concentrations and resulting effect values for the tested compound were plotted and the concentration of compound required for 50% effect (IC50) was determined with the four-parameter logistic dose response equation.

Test [2] has as its system activated CD4+ human T-cells (IL-2). As to the kind of experiment: IL-2 inhibition in supernatants from activated CD4+ human T-cells (cisbio HTRF). The note with it: T-cell; CD3/CD28-activated CD4+ human T cells, ImmunoCult stimulation 20 to 24 hrs; geometric mean of count n. The test is classed as cell-based. As for the experimental part:
IL-2 inhibition activity in supernatants from activated CD4+ human T-cells was determined by measuring the effect of a test compound on the activity using the cisbio HTRF™ technology.
Human CD4+ T cells were activated with CD3/CD28 for 3 days and expanded for an additional 4-6 days (7 to 9 days total). On day 0, frozen CD4+ T cells were thawed, treated with CD3/CD28 Dynabeads, and incubated at 37° C./5% CO2. On day 3, the beads were removed, and the cells were diluted to 5×10^5 cells/cm^2, placed in G-Rex10 flask, and incubated at 37° C./5% CO2. On day 7 to day 9 the cells were removed from the G-Rex flasks, counted and diluted back to 1×10^6 cells/ml in standard tissue culture flask.
The expanded CD4+ T-cells were centrifuged at 300×g for 10 minutes and resuspended to 0.5 million cells per ml (30,000 cells/well). 60 μl of CD4+ T cells were added per well to a 384 well plate containing 0.1 μL of varying concentrations of test compound in DMSO. The plates were incubated for 15 min at 37° C./5% CO2. 20 μl of diluted ImmunoCult™ (STEMCELL Technologies, 1:12.5 in T cell assay media) were added to all wells of the plate (1:50 final assay concentration). The plates were incubated for an additional 20 to 24 hrs at 37° C./5% CO2. The plates were centrifuged at 300×g for 10 minutes. 16 μL of supernatant was removed and combined with 4 μl of IL-2 HTRF Abs. (cisbio kit). Plates were incubated for 3 hours at RT and read with an EnVision plate reader at 665 nm and 615 nm wavelengths. The concentrations and resulting effect values for the tested compound were plotted and the concentration of compound required for 50% effect (IC50) was determined with the four-parameter logistic dose response equation.
(In general: In TR-FRET formats the signal depends on donor and acceptor labels being close together.)

Chain of IL-2-Inducible T-Cell Kinase (ITK) (Q08881 whole entry): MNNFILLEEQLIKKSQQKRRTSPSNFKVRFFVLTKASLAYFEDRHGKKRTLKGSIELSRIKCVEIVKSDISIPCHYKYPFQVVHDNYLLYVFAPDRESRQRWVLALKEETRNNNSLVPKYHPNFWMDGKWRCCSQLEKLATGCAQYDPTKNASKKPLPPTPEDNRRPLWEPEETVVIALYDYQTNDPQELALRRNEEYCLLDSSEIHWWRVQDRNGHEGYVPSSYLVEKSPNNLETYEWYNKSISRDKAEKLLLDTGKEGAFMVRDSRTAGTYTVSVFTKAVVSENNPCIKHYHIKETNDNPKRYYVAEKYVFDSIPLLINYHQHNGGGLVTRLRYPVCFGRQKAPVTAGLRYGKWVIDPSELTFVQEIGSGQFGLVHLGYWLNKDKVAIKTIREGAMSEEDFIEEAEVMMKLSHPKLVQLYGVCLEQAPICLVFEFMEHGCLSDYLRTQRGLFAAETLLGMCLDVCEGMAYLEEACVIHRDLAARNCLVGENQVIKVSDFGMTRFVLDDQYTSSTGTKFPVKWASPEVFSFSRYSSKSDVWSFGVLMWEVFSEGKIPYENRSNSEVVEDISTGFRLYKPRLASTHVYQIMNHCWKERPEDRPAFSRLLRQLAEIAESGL

As a reminder, the IC50 is the concentration that inhibits the measured activity by half. A lower IC50 goes with higher potency. As for `C[C@H](C(=O)N(C)c1cnc2[nH]c(-c3n[nH]c4c3C[C@@H]3C[C@]3(C)C4)nc2c1)N1CCCOCC1` [Example 44, (R)-N-Methyl-N-(2-((4aS,5aR)-5a-methyl-1,4,4a,5,5a,6-hexahydrocyclopropa[f]indazol-3-yl)-3H-imidazo[4,5-b]pyridin-6-yl)-2-(1,4-oxazepan-4-yl)propenamide], the IC50 is 101 nM in test [1] and 226 nM in test [2].
Regarding `CN(C(=O)CC1CCCC1)c1cnc2nc(-c3n[nH]c4c3C[C@@H]3C[C@]3(C)C4)[nH]c2c1` [Example 45, 2-Cyclopentyl-N-methyl-N-(2-((4aS,5aR)-5a-methyl-1,4,4a,5,5a,6-hexahydrocyclopropa[f]indazol-3-yl)-1H-imidazo[4,5-b]pyridin-6-yl)acetamide], the results for the IC50 in test [1] and in test [2] were 25 nM and 117 nM, respectively.
Taken in the same sequence, the figures for `CN(C(=O)C1CCOCC1)c1cnc2nc(-c3n[nH]c4c3C[C@@H]3C[C@]3(C)C4)[nH]c2c1` [Example 46, N-Methyl-N-(2-((4aS,5aR)-5a-methyl-1,4,4a,5,5a,6-hexahydrocyclopropa[f]indazol-3-yl)-1H-imidazo[4,5-b]pyridin-6-yl)tetrahydro-2H-pyran-4-carboxamide] were 123 nM and 294 nM.
As for `CN(C(=O)C1CCCCC1)c1cnc2nc(-c3n[nH]c4c3C[C@@H]3C[C@]3(C)C4)[nH]c2c1` [Example 51, N-Methyl-N-(2-((4aS,5aR)-5a-methyl-1,4,4a,5,5a,6-hexahydrocyclopropa[f]indazol-3-yl)-1H-imidazo[4,5-b]pyridin-6-yl)cyclohexanecarboxamide], the values for the IC50 in test [1] and in test [2] were 37 nM and 108 nM, respectively.
As to `CN(C(=O)CC1CCOCC1)c1cnc2nc(-c3n[nH]c4c3C[C@@H]3C[C@]3(C)C4)[nH]c2c1` [Example 52, N-Methyl-N-(2-((4aS,5aR)-5a-methyl-1,4,4a,5,5a,6-hexahydrocyclopropa[f]indazol-3-yl)-1H-imidazo[4,5-b]pyridin-6-yl)-2-(tetrahydro-2H-pyran-4-yl)acetamide], the IC50 in test [1] is 51 nM; in test [2] it was 189 nM.
For the compound `CN(C(=O)C(C)(C)CN1CCOCC1)c1cnc2nc(-c3n[nH]c4c3C[C@@H]3C[C@]3(C)C4)[nH]c2c1` [Example 53, N,2,2-Trimethyl-N-(2-((4aS,5aR)-5a-methyl-1,4,4a,5,5a,6-hexahydrocyclopropa[f]indazol-3-yl)-1H-imidazo[4,5-b]pyridin-6-yl)-3-morpholinopropanamide], the values for the IC50 in test [1] and in test [2] were 88 nM and 304 nM, respectively.
For `CN(C(=O)C1C[C@@H]2[C@H](C1)C2(F)F)c1cnc2nc(-c3n[nH]c4c3C[C@@H]3C[C@]3(C)C4)[nH]c2c1` (stereo partly drawn) [Example 55, (1R,5S)-6,6-Difluoro-N-methyl-N-(2-((4aS,5aR)-5a-methyl-1,4,4a,5,5a,6-hexahydrocyclopropa[f]indazol-3-yl)-1H-imidazo[4,5-b]pyridin-6-yl)bicyclo[3.1.0]hexane-3-carboxamide], the IC50 amounted to 20 nM in test [1] and 93 nM in test [2].
On to `CN(C(=O)CN1CCOCC1=O)c1cnc2nc(-c3n[nH]c4c3C[C@@H]3C[C@]3(C)C4)[nH]c2c1` [Example 56, N-Methyl-N-(2-((4aS,5aR)-5a-methyl-1,4,4a,5,5a,6-hexahydrocyclopropa[f]indazol-3-yl)-1H-imidazo[4,5-b]pyridin-6-yl)-2-(3-oxomorpholino)acetamide], for which the IC50 stood at 54 nM in test [1] and 611 nM in test [2].
In the case of `CN(C(=O)C12CC(F)(C1)C2)c1cnc2nc(-c3n[nH]c4c3C[C@@H]3C[C@]3(C)C4)[nH]c2c1` [Example 59], the IC50 was found to be 109 nM in test [1] and 370 nM in test [2].
On the same counts, the results for `CN(C(=O)C(C)(C)C1CCOCC1)c1cnc2nc(-c3n[nH]c4c3CC3C[C@]3(C)C4)[nH]c2c1` (stereo partly drawn) [Example 60, N,2-Dimethyl-N-(2-((4aS,5aR)-5a-methyl-1,4,4a,5,5a,6-hexahydrocyclopropa[f]indazol-3-yl)-1H-imidazo[4,5-b]pyridin-6-yl)-2-(tetrahydro-2H-pyran-4-yl)propenamide] are 63 nM and 182 nM.
For the compound `CN(C(=O)C1(C)CCC(F)(F)CC1)c1cnc2nc(-c3n[nH]c4c3C[C@@H]3C[C@]3(C)C4)[nH]c2c1` [Example 62, 4,4-Difluoro-N,1-dimethyl-N-(2-((4aS,5aR)-5a-methyl-1,4,4a,5,5a,6-hexahydrocyclopropa[f]indazol-3-yl)-1H-imidazo[4,5-b]pyridin-6-yl)cyclohexane-1-carboxamide], the IC50 in test [1] was 141 nM; in test [2], 402 nM.
Take `CN(C(=O)C1(C2CCC2)CCC1)c1cnc2nc(-c3n[nH]c4c3C[C@@H]3C[C@]3(C)C4)[nH]c2c1` [Example 63, N-Methyl-N-(2-((4aS,5aR)-5a-methyl-1,4,4a,5,5a,6-hexahydrocyclopropa[f]indazol-3-yl)-1H-imidazo[4,5-b]pyridin-6-yl)-[1,1′-bi(cyclobutane)]-1-carboxamide]: the IC50 in test [1] stood at 40 nM; in test [2], 338 nM.
As for `CN(C(=O)[C@@H]1CCCCO1)c1cnc2nc(-c3n[nH]c4c3C[C@@H]3C[C@]3(C)C4)[nH]c2c1` [Example 64, (S)-N-Methyl-N-(2-((4aS,5aR)-5a-methyl-1,4,4a,5,5a,6-hexahydrocyclopropa[f]indazol-3-yl)-1H-imidazo[4,5-b]pyridin-6-yl)tetrahydro-2H-pyran-2-carboxamide], the IC50 in test [1] was determined as 103 nM; in test [2] it was 208 nM.
Taken in the same sequence, the figures for `CCC1(C(=O)N(C)c2cnc3nc(-c4n[nH]c5c4C[C@@H]4C[C@]4(C)C5)[nH]c3c2)CCOCC1` [Example 65, 4-Ethyl-N-methyl-N-(2-((4aS,5aR)-5a-methyl-1,4,4a,5,5a,6-hexahydrocyclopropa[f]indazol-3-yl)-1H-imidazo[4,5-b]pyridin-6-yl)tetrahydro-2H-pyran-4-carboxamide] were 150 nM and 568 nM.
As to `CN(C(=O)C1(C)CC(F)(F)C1)c1cnc2nc(-c3n[nH]c4c3C[C@@H]3C[C@]3(C)C4)[nH]c2c1` [Example 66, 3,3-Difluoro-N,1-dimethyl-N-(2-((4aS,5aR)-5a-methyl-1,4,4a,5,5a,6-hexahydrocyclopropa[f]indazol-3-yl)-1H-imidazo[4,5-b]pyridin-6-yl)cyclobutane-1-carboxamide], the figures for the IC50 in test [1] and in test [2] were 92 nM and 292 nM, respectively.
